The values that follow come from article PMC2652713, “Molecular Blocking of CD23 Supports Its Role in the Pathogenesis of Arthritis” (PLoS ONE, 2009).

Test [1] relates to iNOS. The following applies: cited from earlier work. The text has this:
Upon acquisition of CD23 surface expression, human cells may be activated using its biological ligands (e.g. IgE/antigen) or cross-linking with a specific anti-CD23 McAb, [16]. […] To confirm the ability of p30A to inhibit CD23-mediated signaling in human macrophages, we pretreated cells with purified peptides prior to their activation by McAb. Synthetic p30A reduced the levels of inducible nitric oxide syntha ...

Test [2] has as its system human CD23+ monocyte-derived macrophages. Nature of the test: Nitrite (NO) generation by CD23-activated human macrophages, Griess reaction. Type of test: cell-based. The following applies: for iNOS-mediated NO generation: pre-incubation prior to CD23-mediated activation, mean±s.d. of 7 donors (Figure 2C). How it is done: Figure 2 Inhibition of CD23-mediated activation of iNOS pathway in human macrophages by p30A. Human CD23^+ monocyte-derived macrophages were incubated with cross-linking CD23-McAb (20 µg/ml) alone or following 1 h pre-incubation with 10 µg/ml of various peptides. […] Expression of iNOS mRNA was compared to HPRT mRNA levels. (B) Inhibition of NO generation from human activated macrophages by synthetic peptides. Cell supernatants were collected 72 h following cell cultures and levels of nitrites were determined. […] Results are expressed as mean of 3 distinct donor cell preparations (SEM<20%). (C) Inducible NOS-mediated NO generation in human macrophages is decreased following pre-incubation with p30A or L-NIL prior to CD23-mediated activation. Results are expressed as mean±s.d. of 7 distinct donor cell preparations.
(§1) Monocytes or macrophages were activated through CD23 pathway: while monocytes/macrophages from RA patients express CD23, monocytes from healthy donors must be pre-activated to express surface CD23 as described. This pre-activation was obtained by incubation of healthy monocytes with recombinant human IL-4 (20 ng/ml) during 48 h at 37°C; After washing, all cell populations were tested by flow cytometry for their surface CD23 expression (>80% CD23^+) and then incubated in the presence of cross-linking CD23-MAb (clones 135 or DM2, IgG1k, 20 µg/ml) during 48–72 h, or IgE and anti-IgE as described, [17]. When indicated, peptides were added to the cells 2 h prior to their activation. Cells supernatants were then analyzed for their nitric oxide content (see below) and for the presence of cytokines: levels of TNF-α and IL-6 were determined in duplicates for each sample by a specific ELISA (R&D, Paris, France) while levels of IL-1β, IL-8 and IL-10 was determined using FlowCytomix Human Th1/Th2 Kit as recommended (Bender Medsystems, Vienna, Austria).
Culture supernatants (72 h) were assayed for the stable end-product of NO, NO2 ^− using the Griess reaction modified as detailed elsewhere. Inhibitory analog of L-arginine, L-NIL (N(6)-(1-iminoethyl)-L-lysine/2HCl, Coger SA, Paris, France) was used to inhibit iNOS-mediated NO generation. This method gave a sensitivity limit of 0.2 µM if low NO2 ^− medium (DMEM) was used. Total RNA was isolated as above from peritoneal macrophages. Reverse transcription-PCR was performed with an automatic thermal cycler (iCycler, Biorad) using the following specific primers: iNOS mRNA sense (5′-[…]-3′, exon 8) and iNOS mRNA antisense (5′-[…]-3′, exon 11). Hypoxanthine phosphoribosyltransferase (HPRT) mRNA sense (5′-[…]-3′) and HPRT mRNA antisense (5′-[…]- 3′) primers were used as controls. The iNOS messenger is represented by a 371-bp band, whereas a 496-bp band indicates the HPRT messenger.
On the technique in general: Griess reagent forms a coloured azo dye with nitrite.

Test [3] has as its system healthy human PBL-derived macrophages. Nature of the test: Inflammatory mediator release from healthy human PBL-derived macrophages. Type of test: cell-based. To be noted: mean±s.d. As to the method: Figure 4 Inhibition of inflammatory mediator generation from healthy human PBL-derived macrophages by p30A. Decreased levels of TNF-α (A), IL-6 (B), IL-1β, IL-8 and IL-10 (C) were detected in CD23-activated cells after incubation with p30A. […] Values are mean±s.d. of cells from 5 (IL-6, TNF-α) or 2 (IL-1β, IL-8, IL-10) different donors.
as §1

Test [4] relates to adjuvant-induced arthritis in rats. As to the kind of experiment: Adjuvant-induced arthritis (AIA) clinical score in rats. To be noted: AIA rats; pCtl 100 mg/rat. The format is in vivo, rat, Female Lewis. How it is done: Figure 6 Inhibition of in vitro and in vivo inflammatory responses in rats by p30A peptide. (A) Rat peritoneal macrophages were activated via CD23 antigens with/without p30A, L-NIL or pCtl. Cell supernatants were collected 48 h later and nitrite levels were quantified. Values are mean±s.d. of cells from 3 different rats. (B) Cumulative clinical score/rat obtained following 50 days post-immunization in all groups. AIA rats were treated either after or before (d0) the onset of symptoms. Treatment consisted of p30A, hydrocortisone (HC, 30 mg/rat)) or pCtl (100 mg/rat). Shown are means of cumulative score/rat±s.d. from 5 (HC) or 8 rats (other conditions). (C) Evolution of arthritis severity scores of adjuvant-induced arthritis (AIA) in rats treated with intracutaneous p30A or pCtl (100 mg/rat) or hydrocortisone (after the onset of clinical signs as illustrated by arrows (means from 8 rats, s.e.m.<20%). (D) Histopathologic analysis confirm p30A ability to decrease all components of AIA lesions: pannus formation and inflammation of the synovium (P), deformity of joint and bones (asterix), bone remodeling and destruction (arrowhead), bone neoformation (arrows) and cartilage destruction.
All animal procedures were performed in strict accordance with the guidelines issued by the European Economic Community “86/609”. Female Lewis rats (Janvier, Le Genest St Isle, France) were housed under standard laboratory conditions with free access to food and water. The temperature was kept at 22±2°C and a 12 hour light/dark schedule was maintained.
Adjuvant arthritis was induced in six week-old animals by subcutaneous injection at the base of the tail of 300 µl containing 1.8 mg of inactivated Mycobacterium butyricum (Difco Laboratories, Detroit, MI) diluted in emulsion of 8 ml Vaseline, 1 ml polysorbate 80, and 1 ml PBS (Phosphate Buffer Saline, Eurobio). Rats were boosted one week later following the same procedure. Observation was conducted for up to 50 days following immunization for clinical signs of arthritis. Rats were divided in different groups of 8 rats. Groups were treated with five injections (every 2 days) of either p30A (10, 50 or 100 mg in a PBS solution), pCtl, hydrocortisone (Sigma Aldrich) or PBS solution. Injections were initiated two days after the appearance of first arthritic symptoms (therapeutic) or on the first day of immunization (preventive). Evaluation of AIA severity was performed by two independent observers who where not aware of the study protocol. The severity of AIA in each paw was quantified daily using an ordinal clinical score measurement from 0 to 4 as follows: no signs of inflammation ( = 0); swelling alone (>2 fold paw diameter) ( = 1) or swelling/immobility ( = 2) of one paw; swelling ( = 3) or swelling/immobility ( = 4) of two paws. Weight evolution of rats was measured daily. Rats were sacrificed 50 days after AIA induction. Peritoneal macrophages were collected and incubated in culture medium alone for 48 h. Quantification of TNF-α and IL-1β in rat cell supernatants was performed using appropriate ELISA kits and according to manufacturer's recommendations (Biosource, Montrouge, France).

Test [5] relates to peritoneal macrophages of AIA rats. As to the kind of experiment: Ex vivo cytokine release from peritoneal macrophages of treated AIA rats, ELISA. Type of test: in vivo, rat, Female Lewis. The following applies: treatment after onset of symptoms (AIA+p30A, 10 mg/rat; HC 30 mg/rat); cells collected 50 days post-immunization; 48 h culture; 4 rats. A general note: In an ELISA, binding on a coated surface is turned into a signal by an enzyme label.
Procedure: AIA rats were treated either after (AIA+p30A) or before (p30A+AIA) the onset of symptoms. Treatment consisted of p30A (10 mg/rat) or hydrocortisone (HC, 30 mg/rat). Rat peritoneal macrophages were collected following 50 days post-immunization, washed and re-incubated in culture medium alone. Cell supernatants were collected 48 h later and cytokine levels were quantified. Macrophages from healthy rats were also incubated in similar conditions. Values are mean±s.d. of cells from 4 different rats.
Adjuvant arthritis was induced in six week-old animals by subcutaneous injection at the base of the tail of 300 µl containing 1.8 mg of inactivated Mycobacterium butyricum (Difco Laboratories, Detroit, MI) diluted in emulsion of 8 ml Vaseline, 1 ml polysorbate 80, and 1 ml PBS (Phosphate Buffer Saline, Eurobio). Rats were boosted one week later following the same procedure. Observation was conducted for up to 50 days following immunization for clinical signs of arthritis. Rats were divided in different groups of 8 rats. Groups were treated with five injections (every 2 days) of either p30A (10, 50 or 100 mg in a PBS solution), pCtl, hydrocortisone (Sigma Aldrich) or PBS solution. Injections were initiated two days after the appearance of first arthritic symptoms (therapeutic) or on the first day of immunization (preventive). […] Rats were sacrificed 50 days after AIA induction. Peritoneal macrophages were collected and incubated in culture medium alone for 48 h. Quantification of TNF-α and IL-1β in rat cell supernatants was performed using appropriate ELISA kits and according to manufacturer's recommendations (Biosource, Montrouge, France).

The subject of test [6] is asthma. The following applies: Phase I; cited from earlier work. The text has this:
CD23 was also directly triggered by specific antibodies as therapeutic approach.

In the case of `CC(=N)NCCCC[C@H](N)C(=O)O.Cl.Cl` [L-NIL, N(6)-(1-iminoethyl)-L-lysine/2HCl, reference compound], the iNOS inhibition entry in test [1] is reported as “specific inhibitor of iNOS”. For the same compound, in test [2], the “iNOS-mediated NO generation” value was “decreased”.

Consider SFNYNYA [pCtl, reference compound], for which, in test [3] (ELISA, 5 donors), the IL-6 level entry is “No effect” and the TNF-α level entry was “No effect”. Further, in test [3] (FlowCytomix, 2 donors), the IL-1β level result is reported as “No effect”, the IL-8 level entry is given as “No effect” and the IL-10 level entry is “No effect”. For the same compound, the “beneficial effect on arthritis” value in test [4] is listed as “this beneficial effect was not found”. Moreover, in test [2] (CD23-McAb 20 µg/ml, 1 h pre-incubation with peptide, supernatants at 72 h, mean of 3 donors (SEM<20%)), the “NO (nitrite) generation, dose-dependence” value is “no effect”. In test [2], the “iNOS-mediated NO generation” value was “not observed”.

For `C[C@]12CCC(=O)C=C1CC[C@@H]1[C@@H]2[C@@H](O)C[C@@]2(C)[C@H]1CC[C@]2(O)C(=O)CO` [hydrocortisone, reference compound], the “IL-1β release ex vivo, therapeutic” value in test [5] is “moderately decreased IL-1β levels”.

On to “lumiliximab: Primate/human CD23-McAb, developed for the treatment of chronic lymphocytic leukemia”, for which the “clinical outcome, asthma” value in test [6] was “promising therapy in Phase I of clinical trials for asthma”.
